Laboratory results from US20080261955A1, “Use of Pharmaceutical Compositions of Lofepramine for the Treatment of Adhd, Cfs, Fm and Depression” (priority 2004, published 2008).
Read-outs that look alike come from different tables or passages of the source.

Assays:
ECG interval = settings: rats infused with the antidepressant; cited from earlier work
ADHD [1] = assay: Two large well-controlled studies of atomoxetine, CAARS scores; assay type: in vivo, human; settings: overall
Excerpt: In the second study, these improvements were 30.1% vs. 19.6%, respectively. Overall these two studies have indicated a placebo response of about 20% and difference between active and placebo of about 10%. Moreover, atomoxetine is not a stimulant, a point that provides an effective marketing tool for this drug.

ADHD [2] = settings: cited from earlier work
[3] = test system: ADD (as defined in DSM III); settings: 31 patients treated with 4.6 mg/kg, children and adolescents; cited from earlier work
[4] = desipramine treatment; cited from earlier work
[5] = fatal poisoning / overdose; cited from earlier work
hyperactivity (ADHD) = settings: doses as low as 75 mg/day; cited from earlier work
[6] = test system: noradrenaline reuptake versus serotonin (5HT) reuptake; assay: NA:5HT relative potencies based on Ki data (Bolden-Watson and Richelson); assay type: biochemical; settings: basis not stated
Excerpt: The selectivity a drug for various receptors may be compared by use of comparative Ki's and not comparative IC 50 values. (Bolden-Watson, C and Richelson, E., Life Sci, (52), 1993, 1023-1029), which is hereby incorporated by reference.

dopamine D2 receptor = dopamine D2 receptor (Homo sapiens, UniProt P14416); assay: Activity at the dopamine D2 receptor
[7] = test system: serotonin synthesis in the brain; assay: Serotonin synthesis in the brain
Sedation = settings: in vivo
[8] = test system: Hypothalamic-Pituitary-Adrenal axis; assay: HPA axis activity in CFS; assay type: in vivo, human; settings: along with symptomatic relief
Excerpt: While not being bound by any one mechanisms of action, previous work by one of the co-inventors here, has supported the evidence that there is Hypothalamic-Pituitary-Adrenal axis under activity in CFS patients. (Scott […] and […]; Acta Psychiatr Scand 1998 June 97: 450-7).

DSM-IV ADHD = assay: Example 1: case reports of ADHD patients on lofepramine; assay type: in vivo, human; settings: for behaviour: child; for general behaviour and concentration: person
Protocol: Patient is a person with a diagnosis of DSM-IV ADHD. Their education was severely impacted by an inability to sustain attention for any length of time and they were also very disruptive in class. Their inability to sustain attention was causing difficulty at work. They were referred by their primary care physician. They were commenced on lofepramine 70 mg twice daily. […] The dose of lofepramine was increased to 70 mg three times daily. […] Within 48 hours their concentration deteriorated and they were once again in trouble at work. A week later the medication was recommenced and they have now remained well for approximately 4 months. They are performing effectively at work and their parents are happy with the situation. A child had been on methylphenidate for 2 years which was prescribed for ADHD characterised by poor concentration and impulsive behaviour. They stopped taking the medication and deteriorated. When they attended the clinic they were commenced on lofepramine 70 mg twice daily. […] This has been sustained for 4 months.

ADHD [9] = assay: Example 2: lofepramine versus placebo in adult patients with ADHD (CAARS); assay type: in vivo, human; settings: 20 adult patients, oral 140 to 280 mg/day, 3 months
Protocol: A study was carried out to access the efficacy of lofepramine compared to placebo in 20 adult patients with ADHD at a single study centre. Active treatment was for 3 months. Patients with DSM-IV diagnosis of ADHD were recruited. Patients were assessed using the patient-rated Connors Adult ADH Rating Scales (CAARS). Initially, there was a single blind placebo period between day 0 and week 3, and patients who responded to placebo were withdrawn. Oral administration of lofepramine (140 mg/day) was commenced from week 3 onwards. Patients showing little response to this dose and tolerable side effects were titrated upwards to 210 mg/day and then to 280 mg/day.

Chronic Fatigue Syndrome = assay: Example 3: lofepramine in Chronic Fatigue Syndrome patients, cross-over design; assay type: in vivo, human; settings: 44 patients, doses up to 210 mg/day over 26 weeks
Protocol: Forty-four patients meeting the criteria for Chronic Fatigue Syndrome were recruited in a cross-over design. […] Patients were administered lofepramine at doses up to 210 mg/day over the 26 weeks of the study. Patients were assessed using the FibroFatigue Scale (interview scale) and the CDR battery of cognitive tests (computer based assessment of cognition). Other assessments included HADS and Clinical Global Improvement (CGI). Four CDR assessments and 9 Fibrofatigue assessments were carried out.

[10] = toxic levels similar to that found in the SSRI's

dopamine D2 receptor, sequence (P14416 whole entry, species assumed): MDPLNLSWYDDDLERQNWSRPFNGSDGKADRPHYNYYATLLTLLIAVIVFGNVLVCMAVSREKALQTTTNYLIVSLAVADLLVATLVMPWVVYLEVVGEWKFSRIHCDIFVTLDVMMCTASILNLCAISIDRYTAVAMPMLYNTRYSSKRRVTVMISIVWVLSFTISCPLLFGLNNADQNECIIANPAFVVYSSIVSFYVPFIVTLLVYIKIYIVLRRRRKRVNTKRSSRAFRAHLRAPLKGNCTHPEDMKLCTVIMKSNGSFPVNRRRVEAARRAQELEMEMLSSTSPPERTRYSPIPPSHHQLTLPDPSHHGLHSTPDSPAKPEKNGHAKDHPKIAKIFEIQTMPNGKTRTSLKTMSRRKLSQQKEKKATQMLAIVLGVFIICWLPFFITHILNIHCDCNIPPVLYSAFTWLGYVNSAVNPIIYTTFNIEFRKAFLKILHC

In the case of `CN(C)CCC=C1c2ccccc2CCc2ccccc21` [amitriptyline], the “effect on ECG interval” value (ECG interval) is given as “prolong the ECG interval”.

In the case of `CNCC[C@@H](Oc1ccccc1C)c1ccccc1` [atomoxetine], the “difference between active and placebo in reduction of CAARS scores” value (ADHD [1]) is listed as “about 10%”, the “mean reduction of CAARS scores” value (ADHD [2]; first study, placebo 18.1%) is listed as 28.3% and the “mean reduction of CAARS scores” value (ADHD [2]; second study, placebo 19.6%) is listed as 30.1%.

In the case of `CNCCCN1c2ccccc2CCc2ccccc21` [desipramine], the “effect on ECG interval” value (ECG interval) is given as “prolong the ECG interval”, the “patients with a significant response” value [3] is given as “around 70%” and the “diastolic blood pressure, heart rate and ECG conductance” value [4] is given as “asymptomatic and generally small increases”. The “fatalities per million prescriptions” value [5] was 200.9 per million prescriptions.

For `CN(C)CCCN1c2ccccc2CCc2ccccc21` [imipramine], the “effect on ECG interval” value (ECG interval) is given as “prolong the ECG interval” and the “time to begin to reduce hyperactivity” value (hyperactivity (ADHD)) is given as 3 to 10 days.

In the case of `CN(CCCN1c2ccccc2CCc2ccccc21)CC(=O)c1ccc(Cl)cc1` [lofepramine], the “NA:5HT ratio relative to that of desipramine” value [6] is reported as “about four”, the “NE:5-HT ratio compared with milnacipran” value [6] is reported as “higher than that of milnacipran” and the “activity at the D2 receptor” value (dopamine D2 receptor) is reported as “potent activity”. The “serotonin synthesis in the brain” value [7] was “up-regulate serotonin synthesis in the brain”, the sedation (Sedation) was “does not induce sedation” and the HPA activity [8] was “induces upregulation of HPA activity”. The behaviour (DSM-IV ADHD; 70 mg three times daily, sustained for 4 months) was “major improvement”, the behaviour (DSM-IV ADHD; 70 mg twice daily) was “No immediate improvement” and the side-effects (DSM-IV ADHD; patient report) was “no side-effects”. The “general behaviour and concentration” value (DSM-IV ADHD; 70 mg three times daily, sustained for 3 months) was “continued improvement”, the “general behaviour and concentration” value (DSM-IV ADHD; 70 mg twice daily, after 1 week) was “significant improvement” and the “CAARS scores versus placebo” value (ADHD [9]) was “significant benefit over placebo”. For the same compound, the “FibroFatigue Scale, CDR cognitive tests, HADS and CGI” value (Chronic Fatigue Syndrome) was “significant improvement on all scales”, the cardiotoxicity [10] was “very low cardiotoxicity” and the “effect on ECG interval” value (ECG interval) was “does not”. For the same compound, the “fatalities per million prescriptions” value [5] was 1.3 per million prescriptions.

For `COc1ccc(C(CN(C)C)C2(O)CCCCC2)cc1` (stereo not drawn) [venlafaxine], the “fatalities per million prescriptions” value [5] is given as 13.2 per million prescriptions.
